In test [1] the target is T1, human cloned 5-HT2C receptor (Homo sapiens, UniProt P28335).
T1 construct: expressed in transfected cells; host or cells: CHO cells
T1 sequence (P28335 33-458): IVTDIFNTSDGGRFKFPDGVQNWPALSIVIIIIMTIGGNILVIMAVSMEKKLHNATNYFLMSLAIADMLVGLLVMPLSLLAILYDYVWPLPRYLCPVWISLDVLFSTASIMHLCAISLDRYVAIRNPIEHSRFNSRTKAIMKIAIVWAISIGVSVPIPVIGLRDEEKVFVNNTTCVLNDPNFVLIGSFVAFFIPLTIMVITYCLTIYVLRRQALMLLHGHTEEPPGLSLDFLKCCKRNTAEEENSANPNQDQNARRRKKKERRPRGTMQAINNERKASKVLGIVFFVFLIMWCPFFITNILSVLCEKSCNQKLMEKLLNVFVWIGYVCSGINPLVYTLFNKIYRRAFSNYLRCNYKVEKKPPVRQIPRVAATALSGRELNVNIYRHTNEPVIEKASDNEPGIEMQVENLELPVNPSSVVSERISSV
Kind of test: In vitro binding affinity for 5-HT2C receptor (radioligand binding). As to conditions: human cloned 5-HT2C receptor expressed in CHO cells, [3H]mesulergine radioligand; read-out: 5-HT2C (pIC50) (converted). The procedure: (§1) The interaction of the compounds of Formula (I) with 5-HT2A and 5-HT2C receptors was assessed in in vitro radioligand binding experiments. In general, a low concentration of a radioligand with a high binding affinity for the receptor is incubated with a sample of a tissue preparation enriched in a particular receptor (1 to 5 mg tissue) in a buffered medium (0.2 to 5 ml). During the incubation, the radioligands bind to the receptor. When equilibrium of binding is reached, the receptor bound radioactivity is separated from the non-bound radioactivity, and the receptor bound activity is counted. The interaction of the test compounds with the receptors is assessed in competition binding experiments. Various concentrations of the test compound are added to the incubation mixture containing the tissue preparation and the radioligand. Binding of the radioligand will be inhibited by the test compound in proportion to its binding affinity and its concentration. The affinities of the compounds for the 5-HT2 receptors were measured by means of radioligand binding studies conducted with: (a) human cloned 5-HT2A receptor, expressed in L929 cells using [^125I]R91150 as radioligand and (b) human cloned 5-HT2C receptor, expressed in CHO cells using [^3H]mesulergine as radioligand.

For test [2], the target named is T2, human dopamine D2L receptor (Homo sapiens, UniProt P14416).
T2 construct: expressed in transfected cells; host or cells: CHO cells (frozen membranes)
T2 sequence (P14416 whole entry): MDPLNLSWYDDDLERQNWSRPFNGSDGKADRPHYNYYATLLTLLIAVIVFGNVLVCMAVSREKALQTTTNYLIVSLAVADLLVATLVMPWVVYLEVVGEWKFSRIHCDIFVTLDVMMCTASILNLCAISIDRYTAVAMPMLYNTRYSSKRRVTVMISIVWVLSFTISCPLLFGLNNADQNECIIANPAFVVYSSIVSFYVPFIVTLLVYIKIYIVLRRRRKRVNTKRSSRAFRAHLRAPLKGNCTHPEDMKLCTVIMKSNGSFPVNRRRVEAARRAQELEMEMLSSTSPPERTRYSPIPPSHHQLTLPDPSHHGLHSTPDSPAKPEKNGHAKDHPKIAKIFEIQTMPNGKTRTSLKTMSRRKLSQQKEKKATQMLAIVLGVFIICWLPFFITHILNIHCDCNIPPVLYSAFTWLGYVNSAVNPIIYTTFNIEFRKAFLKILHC
Kind of test: In vitro assay for D2 receptor binding. As to conditions: for IC50 / D2 (pIC50): membranes of human D2L-transfected CHO cells, [3H]Spiperone radioligand; for IC50: read-out: D2 (pIC50) (converted); for D2/NET: ratio of D2 pIC50 to NET-inhibition pIC50. The protocol:
Frozen membranes of human dopamine D2L receptor-transfected CHO cells were thawed, briefly homogenised using an Ultra-Turrax T25 homogeniser and diluted in Tris-HCl assay buffer containing NaCl, CaCl2, MgCl2, KCl (50, 120, 2, 1, and 5 mM respectively, adjusted to pH 7.7 with HCl) to an appropriate protein concentration optimised for specific and non-specific binding. Radioligand [^3H]Spiperone (NEN, specific activity ˜70 Ci/mmol) was diluted in assay buffer at a concentration of 2 nmol/L. Prepared radioligand (50 μl), along with 50 μl of either the 10% DMSO control, Butaclamol (10^−6 mol/l final concentration), or compound of interest, was then incubated (30 min, 37° C.) with 400 μl of the prepared membrane solution. Membrane-bound activity was filtered through a Packard Filtermate harvester onto GF/B Unifilterplates and washed with ice-cold Tris-HCl buffer (50 mM; pH 7.7; 6×0.5 ml). Filters were allowed to dry before adding scintillation fluid and counting in a Topcount scintillation counter. Percentage specific bound and competition binding curves were calculated using S-Plus software (Insightful).

For test [3], the target named is T3, norepinephrine transporter (NET) (Rattus norvegicus, UniProt Q63380).
T3 construct: Cortex from rat brain was collected and homogenised; from tissue; host or cells: rat brain cortex membranes
T3 sequence (Q63380 1-617): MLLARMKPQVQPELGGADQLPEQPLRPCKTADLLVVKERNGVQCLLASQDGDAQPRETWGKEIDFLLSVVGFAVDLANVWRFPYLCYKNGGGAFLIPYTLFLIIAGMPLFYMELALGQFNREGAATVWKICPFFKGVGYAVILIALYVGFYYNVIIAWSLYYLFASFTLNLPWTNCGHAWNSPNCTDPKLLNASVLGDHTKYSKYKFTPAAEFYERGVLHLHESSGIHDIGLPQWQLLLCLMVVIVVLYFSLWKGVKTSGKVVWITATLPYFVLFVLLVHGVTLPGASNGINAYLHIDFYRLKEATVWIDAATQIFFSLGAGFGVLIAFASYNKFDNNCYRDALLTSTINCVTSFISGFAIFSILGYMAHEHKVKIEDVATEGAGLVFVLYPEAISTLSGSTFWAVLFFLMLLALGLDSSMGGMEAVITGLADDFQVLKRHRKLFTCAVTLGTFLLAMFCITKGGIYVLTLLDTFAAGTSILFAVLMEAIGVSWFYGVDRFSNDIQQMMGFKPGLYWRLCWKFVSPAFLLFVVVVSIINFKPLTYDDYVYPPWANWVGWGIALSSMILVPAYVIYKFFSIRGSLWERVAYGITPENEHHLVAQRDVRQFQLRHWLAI
Kind of test: In vitro assay for NET inhibition (radioligand binding, rat brain cortex). As to conditions: rat brain cortex membranes, [3H]Nixosetine radioligand; for IC50: read-out: NET-inhibition (pIC50) (converted). The protocol: Cortex from rat brain was collected and homogenised using an Ultra-Turrax T25 and a Dual homogeniser in ice-cold homogenising buffer containing Tris, NaCl and KCl (50 mM, 120 mM and 5 mM, respectively, pH 7.4) prior to dilution to an appropriate protein concentration optimised for specific and non-specific binding. […] Membrane-bound activity was detected by filtration through a Packard Filtermate harvester onto GF/B Unifilterplates, washed with ice-cold Tris-HCl buffer, containing NaCl and KCl (50 mM, 120 mM and 4 mM; pH 7.4; 6×0.5 ml). Filters were allowed to dry for 24 h before adding scintillation fluid. Scintillation fluid was allowed to saturate filters for 24 h before counting in a Topcount scintillation counter. Percentage specific bound and competition binding curves were calculated using S-Plus software (Insightful).

In test [4] the target is T4, human cloned 5-HT2A receptor (Homo sapiens, UniProt P28223).
T4 construct: expressed in transfected cells; host or cells: L929 cells
T4 sequence (P28223 whole entry): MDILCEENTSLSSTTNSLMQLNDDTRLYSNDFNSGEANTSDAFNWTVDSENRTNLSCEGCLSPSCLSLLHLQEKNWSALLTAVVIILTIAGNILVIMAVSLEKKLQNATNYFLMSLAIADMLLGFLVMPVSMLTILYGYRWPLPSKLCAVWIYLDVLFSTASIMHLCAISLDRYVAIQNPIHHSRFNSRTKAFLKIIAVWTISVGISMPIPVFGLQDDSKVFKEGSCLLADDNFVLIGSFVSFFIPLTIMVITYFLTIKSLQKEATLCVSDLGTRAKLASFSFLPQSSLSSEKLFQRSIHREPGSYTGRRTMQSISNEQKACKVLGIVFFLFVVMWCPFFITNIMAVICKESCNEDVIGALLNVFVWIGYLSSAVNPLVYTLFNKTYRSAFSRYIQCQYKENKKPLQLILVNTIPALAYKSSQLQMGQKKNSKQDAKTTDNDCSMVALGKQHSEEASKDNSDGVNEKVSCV
Kind of test: In vitro binding affinity for 5-HT2A receptor (radioligand binding). The conditions noted are these: human cloned 5-HT2A receptor expressed in L929 cells, [125I]R91150 radioligand; read-out: 5-HT2A (pIC50) (converted). The protocol: as §1

The structures appear in SMILES notation. Some results are limits rather than exact numbers.

For `CNC[C@@H]1C[C@H]2c3ccccc3C(C)c3ccc(F)cc3[C@@H]2O1` (mixture of isomers) [Compound 99], the results for the IC50 in test [1], in test [2] and in test [3] were 200 nM, greater than 10000 nM and 63.1 nM, respectively. Besides, in test [2], the D2/NET is less than 0.69.
In the same order, the values of `CNC[C@H]1C[C@H]2c3cc(F)ccc3C(C)c3ccccc3[C@@H]2O1` (mixture of isomers) [Compound 102] are 50.1 nM, 7940 nM, 31.6 nM and 0.68.
In the case of `CCNC[C@H]1C[C@@H]2c3ccccc3[C@@H](O)c3ccc(F)cc3[C@H]2O1` (relative stereo) [Compound 106], the IC50 in test [1] is 5.01 nM; in test [4], 20 nM; in test [2] it was 1260 nM; in test [3], 3.98 nM. Besides, the D2/NET in test [2] is recorded as 0.67.
In the same order, the values of `C=C1c2ccccc2C2CC(CN(C)C)OC2c2ccccc21` (single isomer, unassigned) [Compound 24] are 25.1 nM, 158 nM, greater than 10000 nM, 20 nM and less than 0.65.
For `CNCC1CC2c3ccccc3C(C)c3ccc(F)cc3C2O1` (single isomer, unassigned) [Compound 73], the IC50 was 2 nM in test [1], 2 nM in test [4], 63.1 nM in test [2] and 39.8 nM in test [3]. Moreover, in test [2], the D2/NET is given as 0.96.
In the case of `C=C1c2ccc(F)cc2C2CC(CNC)OC2c2ccccc21` (single isomer, unassigned) [Compound 93], the results for the IC50 in test [1] and in test [3] were 3.98 nM and 6.31 nM, respectively. For the same compound, in test [2], the D2/NET came out at 0.73.
`C=C1c2ccc(F)cc2C2CC(CNC)OC2c2ccccc21` (single isomer, unassigned) [Compound 94]: the IC50 in test [1] is 20 nM; in test [2], 5010 nM. The D2/NET in test [2] was determined as 0.65. Further, the “NET-inhibition (pIC50)” value in test [3] is reported as 8.2.
With `CNCC1CC2c3ccccc3C(C)c3ccc(F)cc3C2O1` (single isomer, unassigned) [Compound 100], the IC50 was 158 nM in test [1], greater than 10000 nM in test [2] and 7.94 nM in test [3]. Besides, the D2/NET in test [2] is less than 0.62.
Regarding `CNCC1CC2c3cc(F)ccc3C(C)(O)c3ccccc3C2O1` (single isomer, unassigned) [Compound 114], the IC50 in test [1] was 1000 nM. For the same compound, in test [2], the “D2 (pIC50)” value is listed as less than 5 and the D2/NET is listed as less than 0.83. Moreover, in test [3], the IC50 is 631 nM.
For the compound `CNCC1CC2c3cc(F)ccc3C(C)(O)c3ccccc3C2O1` (single isomer, unassigned) [Compound 115], the IC50 in test [1] is 1580 nM; in test [2], greater than 10000 nM; in test [3], 1260 nM. Also, the D2/NET in test [2] is on record as less than 0.85.
With `CCNCC1CC2c3ccccc3C(C)(O)c3ccc(F)cc3C2O1` (single isomer, unassigned) [Compound 118], the IC50 in test [1] is 100 nM; in test [2], 2000 nM; in test [3], 631 nM. Also, in test [2], the D2/NET is reported as 0.91.
As to `CCNCC1CC2c3ccccc3C(C)(O)c3ccc(F)cc3C2O1` (single isomer, unassigned) [Compound 119], the IC50 in test [1] is 20 nM; in test [3], 31.6 nM. Moreover, the D2/NET in test [2] is reported as 0.67.
Regarding `CNCC1CC2c3ccccc3C(C)(O)c3ccc(F)cc3C2O1` (single isomer, unassigned) [Compound 124], in test [1], the IC50 was 6310 nM. Also, in test [2], the “D2 (pIC50)” value is given as less than 5 and the D2/NET is listed as less than 0.77. Also, the IC50 in test [3] is 316 nM.
Take `CNCC1CC2c3ccccc3C(C)(O)c3ccc(F)cc3C2O1` (single isomer, unassigned) [Compound 125]: the IC50 in test [1] was 6310 nM; in test [2] it was greater than 10000 nM; in test [3] it was 2000 nM. The D2/NET in test [2] is given as less than 0.88.
For the compound `CNCC1CC2c3ccccc3C(C)(O)c3ccc(F)cc3C2O1` (single isomer, unassigned) [Compound 126], the IC50 in test [1] is 501 nM; in test [3], 63.1 nM. Also, the “D2 (pIC50)” value in test [2] was less than 5. Further, the D2/NET in test [2] is given as less than 0.69.
Consider `CN(C)C[C@H]1C[C@@H]2c3ccccc3C(=O)c3ccc(F)cc3[C@H]2O1` [Compound 12], for which the IC50 in test [1] is 79.4 nM; in test [4] it was 63.1 nM; in test [2], greater than 1000 nM; in test [3], 63.1 nM. Also, in test [2], the D2/NET was less than 0.83.
Consider `COc1ccc2c(c1)[C@H]1O[C@@H](CN(C)C)C[C@@H]1c1ccccc1C2=O` [Compound 16], for which the IC50 is 50.1 nM in test [1] and 501 nM in test [3]. In addition, in test [2], the D2/NET was 0.95.
Take `C=C1c2ccc(F)cc2C2CC(CN(C)C)OC2c2cc(F)ccc21` (centres unmarked) [Compound 29]: the IC50 is 12.6 nM in test [1], greater than 1000 nM in test [2] and 5.01 nM in test [3]. For the same compound, in test [2], the D2/NET was less than 0.72.
In the same order, the values of `COC1c2ccccc2[C@H]2C[C@H](CN(C)C)O[C@@H]2c2cc(F)ccc21` (some centres unmarked) [Compound 60] are 39.8 nM, 3980 nM, 126 nM and 0.79.
In the same order, the values of `CC1c2ccc(F)cc2C2CC(CN(C)C)OC2c2cc(F)ccc21` (centres unmarked) [Compound 77] are 50.1 nM, greater than 1000 nM, 31.6 nM and less than 0.80.
On the same counts, the results for `C[C@@H]1c2ccccc2[C@H]2C[C@H](CN(C)C)O[C@@H]2c2cc(N(C)C)ccc21` [Compound 78] are 100 nM, 2000 nM, 398 nM and 0.88.
As to `C=C1c2ccccc2[C@@H]2C[C@@H](CNC)O[C@H]2c2cc(F)ccc21` [Compound 95], the IC50 is 50.1 nM in test [1], 6310 nM in test [2] and 15.8 nM in test [3]. Moreover, the D2/NET in test [2] stood at 0.67.
In the same order, the values of `CNC[C@H]1C[C@@H]2c3cc(F)ccc3[C@@H](C)c3ccccc3[C@H]2O1` [Compound 101] are 20 nM, 3980 nM, 15.8 nM and 0.69.
As for `OC1c2ccccc2C2CC(CNCc3ccccc3)OC2c2cc(F)ccc21` (centres unmarked) [Compound 109], the IC50 in test [1] is 12.6 nM; in test [2], greater than 10000 nM; in test [3], 3980 nM. Besides, in test [2], the D2/NET is less than 0.92.
On the same counts, the results for `COC1c2ccccc2C2CC(CNCc3ccccc3)OC2c2cc(F)ccc21` (centres unmarked) [Compound 111] are 79.4 nM, 3160 nM, 2000 nM and 0.96.

Source of the values: patent US20070197525A1, “Novel tetracyclic tetrahydrofuran derivatives” (priority 2004, published 2007).
